From PubChem BioAssay (NCI)
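Results reflect a 48-hour exposure of cells in 96-well plates to compound at five concentrations. GI50 = concentration required for 50% inhibition of growth. TGI denotes the concentration required for complete inhibition of growth.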

Assays:
Assay in all cases: inhibition of tumour cell growth, NCI panel, 48 h; in the data active means GI50 below about 0.43 µM; inactive means the rest
786-0 renal = system: 786-0 renal
A498 renal = system: A498 renal
A549 NSCLC = system: A549 NSCLC
ACHN renal = system: ACHN renal
BT-549 breast = system: BT-549 breast
CAKI-1 renal = system: CAKI-1 renal
CCRF-CEM leukemia = system: CCRF-CEM leukemia
COLO 205 colon = system: COLO 205 colon
DU-145 prostate = system: DU-145 prostate
HCC-2998 colon = system: HCC-2998 colon
HCT-116 colon = system: HCT-116 colon
HCT-15 colon = system: HCT-15 colon
HL-60(TB) leukemia = system: HL-60(TB) leukemia
HOP-62 NSCLC = system: HOP-62 NSCLC
HOP-92 NSCLC = system: HOP-92 NSCLC
HS 578T breast = system: HS 578T breast
HT29 colon = system: HT29 colon
IGROV1 ovarian = system: IGROV1 ovarian
K-562 leukemia = system: K-562 leukemia
KM12 colon = system: KM12 colon
LOX IMVI melanoma = system: LOX IMVI melanoma
MALME-3M melanoma = system: MALME-3M melanoma
MCF7 breast = system: MCF7 breast
MDA-MB-231 breast = system: MDA-MB-231 breast
MDA-MB-435 = system: MDA-MB-435
MDA-N = system: MDA-N
MOLT-4 leukemia = system: MOLT-4 leukemia
NCI-H226 lung = system: NCI-H226 lung
NCI-H23 lung = system: NCI-H23 lung
NCI-H460 lung = system: NCI-H460 lung
NCI-H522 lung = system: NCI-H522 lung
NCI/ADR-RES ovarian = system: NCI/ADR-RES ovarian
OVCAR-3 ovarian = system: OVCAR-3 ovarian
OVCAR-4 ovarian = system: OVCAR-4 ovarian
OVCAR-5 ovarian = system: OVCAR-5 ovarian
OVCAR-8 ovarian = system: OVCAR-8 ovarian
PC-3 prostate = system: PC-3 prostate
RPMI-8226 leukemia = system: RPMI-8226 leukemia
RXF 393 renal = system: RXF 393 renal
SF-268 CNS = system: SF-268 CNS
SF-295 CNS = system: SF-295 CNS
SF-539 CNS = system: SF-539 CNS
SK-MEL-2 melanoma = system: SK-MEL-2 melanoma
SK-MEL-28 melanoma = system: SK-MEL-28 melanoma
SK-MEL-5 melanoma = system: SK-MEL-5 melanoma
SK-OV-3 ovarian = system: SK-OV-3 ovarian
SN12C renal = system: SN12C renal
SNB-75 CNS = system: SNB-75 CNS
SR leukemia = system: SR leukemia
SW-620 colon = system: SW-620 colon
T-47D breast = system: T-47D breast
TK-10 renal = system: TK-10 renal
U251 CNS = system: U251 CNS
UACC-257 melanoma = system: UACC-257 melanoma
UACC-62 melanoma = system: UACC-62 melanoma
UO-31 renal = system: UO-31 renal
EKVX NSCLC = system: EKVX NSCLC
M14 melanoma = system: M14 melanoma
SNB-19 CNS = system: SNB-19 CNS
DLD-1 colon = system: DLD-1 colon
DMS 273 small cell lung = system: DMS 273 small cell lung
KM20L2 colon = system: KM20L2 colon
M19-MEL melanoma = system: M19-MEL melanoma
XF 498 CNS = system: XF 498 CNS

CCCCCn1c(=O)c2c(=O)[nH][nH]c2c2ccccc21
> 100 µM: TGI (786-0 renal) | TGI (A498 renal) | TGI (A549 NSCLC) | TGI (ACHN renal) | TGI (BT-549 breast) | TGI (CAKI-1 renal) | TGI (CCRF-CEM leukemia) | TGI (COLO 205 colon) | TGI (DU-145 prostate) | TGI (HCC-2998 colon) | TGI (HCT-116 colon) | TGI (HCT-15 colon) | TGI (HL-60(TB) leukemia) | TGI (HOP-62 NSCLC) | TGI (HOP-92 NSCLC) | TGI (HS 578T breast) | TGI (HT29 colon) | TGI (IGROV1 ovarian) | TGI (K-562 leukemia) | TGI (KM12 colon) | TGI (LOX IMVI melanoma) | TGI (MALME-3M melanoma) | TGI (MCF7 breast) | TGI (MDA-MB-231 breast) | TGI (MDA-MB-435) | TGI (MDA-N) | TGI (MOLT-4 leukemia) | TGI (NCI-H226 lung) | TGI (NCI-H23 lung) | TGI (NCI-H460 lung) | TGI (NCI-H522 lung) | TGI (NCI/ADR-RES ovarian) | TGI (OVCAR-3 ovarian) | TGI (OVCAR-4 ovarian) | TGI (OVCAR-5 ovarian) | TGI (OVCAR-8 ovarian) | TGI (PC-3 prostate) | TGI (RPMI-8226 leukemia) | TGI (RXF 393 renal) | TGI (SF-268 CNS) | TGI (SF-295 CNS) | TGI (SF-539 CNS) | TGI (SK-MEL-2 melanoma) | TGI (SK-MEL-28 melanoma) | TGI (SK-MEL-5 melanoma) | TGI (SK-OV-3 ovarian) | TGI (SN12C renal) | TGI (SNB-75 CNS) | TGI (SR leukemia) | TGI (SW-620 colon) | TGI (T-47D breast) | TGI (TK-10 renal) | TGI (U251 CNS) | TGI (UACC-257 melanoma) | TGI (UACC-62 melanoma) | TGI (UO-31 renal)

COc1ccc(/C(=N/Nc2nc3ccccc3[nH]2)C(=O)O)cc1
> 100 µM: TGI (786-0 renal) | TGI (A498 renal) | TGI (A549 NSCLC) | TGI (ACHN renal) | TGI (BT-549 breast) | TGI (CAKI-1 renal) | TGI (CCRF-CEM leukemia) | TGI (COLO 205 colon) | TGI (DU-145 prostate) | TGI (EKVX NSCLC) | TGI (HCC-2998 colon) | TGI (HCT-116 colon) | TGI (HCT-15 colon) | TGI (HL-60(TB) leukemia) | TGI (HOP-62 NSCLC) | TGI (HOP-92 NSCLC) | TGI (HS 578T breast) | TGI (HT29 colon) | TGI (IGROV1 ovarian) | TGI (K-562 leukemia) | TGI (KM12 colon) | TGI (LOX IMVI melanoma) | TGI (M14 melanoma) | TGI (MALME-3M melanoma) | TGI (MCF7 breast) | TGI (MDA-MB-231 breast) | TGI (MDA-MB-435) | TGI (MDA-N) | TGI (MOLT-4 leukemia) | TGI (NCI-H226 lung) | TGI (NCI-H23 lung) | TGI (NCI-H460 lung) | TGI (NCI-H522 lung) | TGI (NCI/ADR-RES ovarian) | TGI (OVCAR-3 ovarian) | TGI (OVCAR-4 ovarian) | TGI (OVCAR-5 ovarian) | TGI (OVCAR-8 ovarian) | TGI (PC-3 prostate) | TGI (RPMI-8226 leukemia) | TGI (SF-268 CNS) | TGI (SF-295 CNS) | TGI (SF-539 CNS) | TGI (SK-MEL-2 melanoma) | TGI (SK-MEL-28 melanoma) | TGI (SK-MEL-5 melanoma) | TGI (SK-OV-3 ovarian) | TGI (SN12C renal) | TGI (SNB-19 CNS) | TGI (SNB-75 CNS) | TGI (SR leukemia) | TGI (SW-620 colon) | TGI (T-47D breast) | TGI (TK-10 renal) | TGI (U251 CNS) | TGI (UACC-257 melanoma) | TGI (UACC-62 melanoma) | TGI (UO-31 renal)

Cc1nc2ccccc2c(=O)n1/N=C(\N=Nc1cccc(Cl)c1)c1ccccc1Cl
55.2 µM: TGI (RXF 393 renal)
62.8 µM: TGI (SK-OV-3 ovarian)
3.91 µM: TGI (XF 498 CNS)
> 100 µM: TGI (786-0 renal) | TGI (A549 NSCLC) | TGI (CAKI-1 renal) | TGI (DLD-1 colon) | TGI (DMS 273 small cell lung) | TGI (EKVX NSCLC) | TGI (HCT-116 colon) | TGI (HCT-15 colon) | TGI (HOP-62 NSCLC) | TGI (HT29 colon) | TGI (KM20L2 colon) | TGI (LOX IMVI melanoma) | TGI (M14 melanoma) | TGI (M19-MEL melanoma) | TGI (NCI-H23 lung) | TGI (NCI-H460 lung) | TGI (NCI-H522 lung) | TGI (OVCAR-8 ovarian) | TGI (RPMI-8226 leukemia) | TGI (SK-MEL-5 melanoma) | TGI (SN12C renal) | TGI (SW-620 colon) | TGI (TK-10 renal) | TGI (U251 CNS) | TGI (UACC-62 melanoma) | TGI (UO-31 renal)
71.5 µM: TGI (SF-295 CNS)
58.5 µM: TGI (HOP-92 NSCLC)
89 µM: TGI (SF-539 CNS)
3.73 µM: TGI (K-562 leukemia)

Cn1c2c(c3ccccc31)CCN1C(=O)C3SC21C1C(=O)N(c2ccccc2)C(=O)C31 (stereo not given)
inactive: GI50 (CCRF-CEM leukemia) 53.4 µM | GI50 (HCC-2998 colon) > 100 µM | GI50 (NCI-H460 lung) 90.6 µM | GI50 (PC-3 prostate) 23.4 µM | GI50 (SNB-75 CNS) 13.4 µM
> 89.7 µM: TGI (A498 renal)
> 86.7 µM: TGI (HOP-92 NSCLC)
> 69.2 µM: TGI (UACC-257 melanoma)
> 77.3 µM: TGI (HL-60(TB) leukemia)
> 79.1 µM: TGI (TK-10 renal)
> 73.4 µM: TGI (SK-MEL-5 melanoma)
> 86.3 µM: TGI (UACC-62 melanoma)
> 100 µM: TGI (786-0 renal) | TGI (A549 NSCLC) | TGI (ACHN renal) | TGI (BT-549 breast) | TGI (CAKI-1 renal) | TGI (CCRF-CEM leukemia) | TGI (COLO 205 colon) | TGI (DU-145 prostate) | TGI (EKVX NSCLC) | TGI (HCC-2998 colon) | TGI (HCT-116 colon) | TGI (HCT-15 colon) | TGI (HOP-62 NSCLC) | TGI (HS 578T breast) | TGI (HT29 colon) | TGI (IGROV1 ovarian) | TGI (K-562 leukemia) | TGI (KM12 colon) | TGI (LOX IMVI melanoma) | TGI (M14 melanoma) | TGI (MALME-3M melanoma) | TGI (MCF7 breast) | TGI (MDA-MB-231 breast) | TGI (MDA-MB-435) | TGI (MDA-N) | TGI (MOLT-4 leukemia) | TGI (NCI-H226 lung) | TGI (NCI-H23 lung) | TGI (NCI-H460 lung) | TGI (NCI-H522 lung) | TGI (NCI/ADR-RES ovarian) | TGI (OVCAR-3 ovarian) | TGI (OVCAR-4 ovarian) | TGI (OVCAR-5 ovarian) | TGI (OVCAR-8 ovarian) | TGI (PC-3 prostate) | TGI (RPMI-8226 leukemia) | TGI (RXF 393 renal) | TGI (SF-268 CNS) | TGI (SF-295 CNS) | TGI (SF-539 CNS) | TGI (SK-MEL-28 melanoma) | TGI (SK-OV-3 ovarian) | TGI (SN12C renal) | TGI (SNB-19 CNS) | TGI (SNB-75 CNS) | TGI (SR leukemia) | TGI (SW-620 colon) | TGI (T-47D breast) | TGI (U251 CNS) | TGI (UO-31 renal)
